Laboratory results published in patent publication US20230099204A1, “PHARMACEUTICAL COMPOSITION FOR PREVENTION OR TREATMENT OF CANCER IN WHICH KRAS MUTATION AND ACTIVATED RON ARE PRESENT” (WELLMARKER BIO CO., LTD., priority 2020, published 2023).

How the values were obtained:
SNUC2A = test: MTS assay, cytotoxicity on colorectal cancer cell line SNUC2A; type: cell-based; settings: RON mutation negative, KRAS G12D, 72 hours
Experimental: (§1) MTS assay was performed to compare cytotoxicity of the compounds of Example 1, Example 2, Example 3, Example 4, Example 5, Example 6, and positive control 1 on a colorectal cancer cell line, and a cell death rate of the colorectal cancer cell line was analyzed to compare anticancer activity of the compounds.
(§2) The MTS assay was performed by seeding each colorectal cell line in a 96-well plate at 1,000 cells per well, and after 24 hours, performing treatment with the compounds of Examples 1 to 6 and positive control 1 at various concentrations (0.000001 μM to 10 μM) in 100 μL of 10% FBS-RPMI medium (WELGENE Inc.) per well. The cells were incubated for 72 hours. Then, 20 μL of MTS solution (Promega) was added thereto, and the cells were incubated for 2 hours. Then, the absorbance was measured at 490 nm. The IC50 values for the compounds of Examples 1 to 6 and positive control 1 were calculated using GraphPad Prism™ 5 to investigate cytotoxicity.

SW620 [1] = test: MTS assay, cytotoxicity on colorectal cancer cell line SW620; type: cell-based; settings: Homo sapiens, SW-620, RON Δ155, KRAS G12V, 72 hours
Experimental: as §1, §2

SNU-C2A = test: Cell death induction, trypan blue cell counting, SNU-C2A; type: cell-based; settings: SNUC2A with inactive RON; 1 μM; 48 hours; FIG. 1
Experimental: (§3) Based on the results above, to identify the cell death-inducing ability of the compounds of Example 1 and positive control 1, which are representative materials, preparation was performed by seeding respective colorectal cancer cell lines SNU-[…], HCT8, T84, and SW620 onto 60-mm plates at 3×10^5 cells, and then incubation was performed for 24 hours. Thereafter, treatment with each of Example 1 and positive control 1 was performed at 1μM and incubation was performed for 48 hours. After 48 hours, the cells and cell suspensions were collected by treatment with trypsin, resuspended in 1× PBS and stained using a trypan blue solution (Sigma, cat# T8154). The stained cells were counted using a hemocytometer. Cell counting was repeated, and the mean and the standard deviation were calculated.

HCT8 = test: Cell death induction, trypan blue cell counting, HCT8; type: cell-based, human; settings: HCT8 (pTyr-wtRON); 1 μM; 48 hours; FIG. 1
Experimental: as §3

SW620 [2] = test: Cell death induction, trypan blue cell counting, SW620; type: cell-based, human; settings: 1 μM, 48 hours
Experimental: as §3, with “48 hours. In addition, preparation was performed by seeding the cell line SW620 onto a 60-mm plate at 3×10^5 cells, and then incubation was performed for 24 hours. Thereafter, treatment with each of Example 1, positive control 1, positive control 2, and positive control 3 was performed at 1 μM. After 48” for “48 hours. After 48”

CCOc1ccn(-c2ccc(F)cc2)c(=O)c1C(=O)Nc1ccc(Oc2ccnc3cc(-c4ccc(CN5CCOCC5)cn4)sc23)c(F)c1.Cl [Example 1, 4-ethoxy-N-[3-fluoro-4-({2-[5-(morpholinomethyl)pyridine-2-yl]thieno[3,2-b]pyridine-7-yl}oxy)phenyl]-1-(4-fluorophenyl)-2-oxo-1,2-dihydropyridine-3-carboxamide hydrochloride]
IC50 (SNUC2A): 5.78 µM | IC50 (SW620 [1]): 0.32 µM | cell death induction efficacy (SNU-C2A): no response | cell death induction efficacy (HCT8): cell-killing efficacy was exhibited | cell death rate (SW620 [2]; SW620 (KRAS G12V/mRON Δ155), FIG. 2): high cell death rate | cell death induction efficacy (SW620 [2]; SW620 with a RON mutation, FIG. 1): cell death induction efficacy was exhibited regardless of mutation type
